# Laboratory results reported in ChEMBL document CHEMBL3813693, “Gastroprotective effects of new diterpenoid derivatives from Azorella cuatrecasasii Mathias & Constance obtained using a β-cyclodextrin complex with microbial and chemical transformations” (2016).
# Assays:
# Mus musculus [1] = assay: Gastroprotective activity in Swiss albino mouse assessed as reduction in HCl/EtOH-induced gastric lesions at 20 mg/kg, po dosed 50 mins before HCl/EtOH challenge measured after 1 hr relative to control; format: functional; settings: Stomach
# Mus musculus [2] = assay: Gastroprotective activity in Swiss albino mouse model of HCl/EtOH-induced ulcer assessed as lesion index at 20 mg/kg, po dosed 50 mins before HCl/EtOH challenge measured after 1 hr (reference value: 37.7 +/- 4.3 millimeter); format: functional
SMILES,inhibition in vivo at 20 mg/kg (Mus musculus [1]),UI (Mus musculus [2])
COC(=O)[C@]12CC[C@@]3(C)CC=C(CO)C=C[C@H]3[C@@H]1CC[C@@H]2C(C)C,18%,31 mm
COC(=O)[C@]12CC[C@@]3(C)CC=C(COC(C)=O)C=C[C@H]3[C@@H]1CC[C@@H]2C(C)C,3%,36.8 mm
CC(C)[C@H]1CC[C@H]2[C@@H]3C=CC(CO)=CC[C@]3(C)[C@H](O)C[C@]12C(=O)O,69%,11.8 mm
Cc1c(OCC(F)(F)F)ccnc1C[S+]([O-])c1nc2ccccc2[nH]1 (stereo not drawn) [LANSOPRAZOLE],57%,16.1 mm
CC(=O)OCC1=CC[C@]2(C)[C@H](OC(C)=O)C[C@]3(C(=O)O)[C@@H](C(C)C)CC[C@H]3[C@@H]2C=C1,48%,19.6 mm
COC(=O)[C@]12C[C@@H](O)[C@@]3(C)CC=C(CO)C=C[C@H]3[C@@H]1CC[C@@H]2C(C)C,36%,24.3 mm
COC(=O)[C@]12C[C@@H](OC(C)=O)[C@@]3(C)CC=C(COC(C)=O)C=C[C@H]3[C@@H]1CC[C@@H]2C(C)C,6%,35.6 mm
CC(C)[C@H]1CC[C@H]2[C@@H]3C=CC(CO)=CC[C@]3(C)CC[C@]12C(=O)O,59%,15.4 mm
CC(=O)OCC1=CC[C@]2(C)CC[C@]3(C(=O)O)[C@@H](C(C)C)CC[C@H]3[C@@H]2C=C1,43%,21.6 mm
